Assay results: PubChem BioAssay (NCI)
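Interpolation was linear, between the two tested concentrations surrounding the appropriate level; five concentrations were tested over 48 hours in 96-well plates. Here, GI50 denotes the concentration required for 50% inhibition of growth. TGI denotes the concentration required for complete inhibition of growth.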

Key:
Assay in all cases: growth of human tumour cells (NCI), 48 h
HCT-15 colon = test system: HCT-15 colon
SK-MEL-5 melanoma = test system: SK-MEL-5 melanoma
CAKI-1 renal = test system: CAKI-1 renal
NCI-H23 lung = test system: NCI-H23 lung
OVCAR-3 ovarian = test system: OVCAR-3 ovarian
LOX IMVI melanoma = test system: LOX IMVI melanoma
MOLT-4 leukemia = test system: MOLT-4 leukemia
UACC-257 melanoma = test system: UACC-257 melanoma
U251 CNS = test system: U251 CNS
MCF7 breast = test system: MCF7 breast

| SMILES | TGI (HCT-15 colon) | TGI (SK-MEL-5 melanoma) | TGI (CAKI-1 renal) | TGI (NCI-H23 lung) | TGI (OVCAR-3 ovarian) | TGI (LOX IMVI melanoma) | TGI (MOLT-4 leukemia) | TGI (UACC-257 melanoma) | GI50 (U251 CNS) | TGI (U251 CNS) | TGI (MCF7 breast) | GI50 (SK-MEL-5 melanoma) | GI50 (CAKI-1 renal) | GI50 (NCI-H23 lung) | GI50 (MCF7 breast) | GI50 (OVCAR-3 ovarian) | GI50 (LOX IMVI melanoma) | GI50 (UACC-257 melanoma) |
| --- | --- | --- | --- | --- | --- | --- | --- | --- | --- | --- | --- | --- | --- | --- | --- | --- | --- | --- |
| O=c1cccccc1[O-].O=c1cccccc1[O-].[O]=[U+2]=[O] | > 100 µM | > 100 µM | 56.4 µM | > 100 µM | 36.8 µM | 95 µM | 82 µM | 68.5 µM | 25.9 µM | 72 µM | – | – | – | – | – | – | – | – |
| O=C(OCN1C(=O)C2C3C=CC(C2C1=O)C1C2C(=O)N(COC(=O)C4CCCN4)C(=O)C2C31)C1CCCN1 (stereo unspecified) | > 58.7 µM | > 100 µM | > 100 µM | > 100 µM | > 100 µM | > 64.5 µM | > 95.3 µM | > 100 µM | – | > 67.5 µM | – | – | – | – | – | – | – | – |
| Cc1nn(-c2ccccc2)c(C)c1/C=N/N=C1\SCC(=O)N1c1ccccc1 | 63.6 µM | 30.3 µM | 44.9 µM | 86.4 µM | 78.3 µM | 48.1 µM | > 100 µM | 88.2 µM | – | 69.3 µM | > 100 µM | – | – | – | – | – | – | – |
| CNC(=O)OCc1c(CO)nc(SC)n1C | > 100 µM | > 100 µM | > 100 µM | > 100 µM | > 100 µM | > 100 µM | > 100 µM | > 100 µM | – | > 100 µM | > 100 µM | – | – | – | – | – | – | – |
| O=C(/C=C/c1ccccc1)NNC(=O)c1c(Cl)c(Cl)c(Cl)c(Cl)c1-c1nc2ccccc2[nH]1 | 90.7 µM | 62.4 µM | > 100 µM | 60 µM | > 100 µM | 59.6 µM | > 100 µM | 99.1 µM | – | – | > 100 µM | – | – | – | – | – | – | – |
| COc1cc2c(cc1O)CC[C@@H]1[C@@H]2CC[C@]2(C)[C@@H](OCCN(C)C)CC[C@@H]12 | – | 0.164 µM | 6.19 µM | 1.12 µM | 0.966 µM | 0.192 µM | – | 0.355 µM | 0.219 µM | 0.872 µM | 0.884 µM | 0.0828 µM | 1.45 µM | 0.202 µM | 0.17 µM | 0.183 µM | 0.0949 µM | 0.138 µM |
| COc1cc2c(ccc3c4cc(OC)c(OC)cc4c[n+](C)c23)cc1O | > 75 µM | 52.7 µM | > 75 µM | 68.3 µM | 54.3 µM | > 75 µM | 19.2 µM | > 75 µM | – | 2.94 µM | > 75 µM | – | – | – | – | – | – | – |
| CCN(CC(=O)O)C(=O)c1cccnc1 | > 100 µM | – | > 100 µM | > 100 µM | > 100 µM | > 100 µM | > 100 µM | > 100 µM | – | > 100 µM | – | – | – | – | – | – | – | – |
| CCC(C)C1=C(OC(C)=O)[N+]2([O-])Oc3ccc(-c4c(OC(C)=O)c(OC(C)=O)c(-c5ccc(OC(C)=O)cc5)c(OC(C)=O)c4OC(C)=O)cc3OC2(C(C)CC)C(=O)N1OC(C)=O (stereo unspecified) | > 50 µM | 23 µM | > 50 µM | > 50 µM | 29.5 µM | 43.5 µM | 29.3 µM | > 50 µM | – | > 50 µM | > 50 µM | – | – | – | – | – | – | – |
| O=C(C[n+]1ccc2ccccc2c1)c1ccc2ccc3ccccc3c2c1 | 18.9 µM | 14.4 µM | 20.1 µM | 17.6 µM | 17.7 µM | 6.57 µM | 2.69 µM | 5.64 µM | – | 14.6 µM | 11.3 µM | – | – | – | – | – | – | – |
| CC1=CC(=O)c2ccccc2C1=O | 14.1 µM | 5.92 µM | 29.7 µM | 19.4 µM | 23.4 µM | 5.72 µM | 5.15 µM | 9.08 µM | – | 26.4 µM | 23.8 µM | – | – | – | – | – | – | – |
| C[C@H](CCC(=O)O)[C@H]1CC[C@@]2(C)[C@@H]3C(=O)C[C@H]4C(C)(C)[C@@H](O)CC[C@]4(C)[C@H]3C(=O)C[C@]12C | > 100 µM | > 100 µM | > 100 µM | > 100 µM | > 100 µM | > 100 µM | > 100 µM | > 100 µM | – | > 100 µM | > 100 µM | – | – | – | – | – | – | – |
| CCOC(=O)C1=NN(c2ccc(C)cc2)C2=CC(C)=NN(C)C(=S)N21 | > 100 µM | > 100 µM | 55.1 µM | > 100 µM | > 100 µM | > 100 µM | > 100 µM | > 100 µM | – | > 100 µM | – | – | – | – | – | – | – | – |
| O=C(/C=C/c1ccc(O)c(-c2cc(C(=O)/C=C/c3ccc(O)cc3)c(O)cc2O)c1)c1ccc(O)cc1O | > 50 µM | > 50 µM | > 50 µM | > 50 µM | 43.8 µM | 43.1 µM | > 50 µM | > 50 µM | – | > 50 µM | > 50 µM | – | – | – | – | – | – | – |
| CC1CC[C@@]2(OC1)OC1C[C@H]3[C@@H]4CC=C5CC(OC6OC(CO)C(OC7OC(CO)C(O)C(OC8OCC(O)C(O)C8O)C7OC7OC(CO)C(O)C(O)C7O)C(O)C6O)CCC5(C)[C@H]4CCC3(C)C1[C@@H]2C (stereo partly specified) | > 25 µM | 8.43 µM | 10.3 µM | 11.7 µM | 9.25 µM | 8.53 µM | 19.8 µM | 18 µM | – | 8.72 µM | 14.6 µM | – | – | – | – | – | – | – |
| Cc1c(N2C(=O)CS(=O)(=O)C2c2cccc(Oc3ccccc3)c2)c(=O)n(-c2ccccc2)n1C (stereo unspecified) | > 100 µM | > 100 µM | > 100 µM | > 100 µM | > 100 µM | > 100 µM | > 100 µM | > 100 µM | – | > 100 µM | > 100 µM | – | – | – | – | – | – | – |
